# US8999942B2, “Polyol modified aminoglycoside-lipid conjugates” (University of Manitoba, priority 2010, dated 2015)
# What was measured:
# [1] = system: methicillin-resistant Staphylococcus epidermidis (MRSE) CAN-ICU 61589; assay: MIC, broth macrodilution (CLSI), MRSE; type: cell-based; details: methicillin-resistant S. epidermidis, footnote (ATCC 14990)
# Method: (§1) All compounds were tested against American Type Culture Collection (ATCC) reference strains as well as clinical isolates from the Canadian Intensive Care Unit (CAN-ICU) study (Zhanel, et al., 2008). […] Antibacterial activity against Gram-positive and Gram-negative microorganisms was performed via broth macrodilution tests using CLSI methodology (Clinical and Laboratory Standards Institute, 2006). The minimum inhibitory concentration (MIC) in μg/mL of the aminoglycoside-derived amphiphilic polycarbamates and polyethers were determined using established methods (Clinical and Laboratory Standards Institute, 2006) and are shown in Tables 1 and 2, respectively.
# [2] = system: Acinetobacter baumanni (CAN-ICU 63169); assay: MIC, broth macrodilution (CLSI), A. baumannii; type: cell-based; details: A. baumannii CAN-ICU 63169
# Method: as §1
# [3] = system: Streptococcus pneumoniae ATCC 49619; assay: MIC, broth macrodilution (CLSI), S. pneumoniae ATCC 49619; type: cell-based
# Method: as §1
# [4] = system: methicillin-resistant Staphylococcus aureus (MRSA) ATCC 33592; assay: MIC, broth macrodilution (CLSI), MRSA ATCC 33592; type: cell-based; details: MRSA, methicillin-resistant S. aureus ATCC 33592
# Method: as §1
# [5] = system: S. epidermidis ATCC 14990; assay: MIC, broth macrodilution (CLSI), S. epidermidis; type: cell-based, Staphylococcus epidermidis; details: footnote ATCC 1490
# Method: as §1
# [6] = system: S. aureus ATCC 29213; assay: MIC, broth macrodilution (CLSI), S. aureus ATCC 29213; type: cell-based, Staphylococcus aureus
# Method: as §1
# [7] = system: S. pneumoniae ATCC 13883; assay: MIC, broth macrodilution (CLSI), S. pneumoniae ATCC 13883; type: cell-based
# Method: as §1
# [8] = system: Pseudomonas aeruginosa ATCC 27853; assay: MIC, broth macrodilution (CLSI), P. aeruginosa ATCC 27853; type: cell-based
# Method: as §1
# [9] = system: E. coli ATCC 25922; assay: MIC, broth macrodilution (CLSI), E. coli ATCC 25922; type: cell-based
# Method: as §1
# [10] = system: P. aeruginosa (Gent-R) CAN-ICU 62308; assay: MIC, broth macrodilution (CLSI), P. aeruginosa CAN-ICU 62308; type: cell-based, Pseudomonas aeruginosa
# Method: as §1
# [11] = system: E. coli (Gentamicin-resistant) CAN-ICU 61714; assay: MIC, broth macrodilution (CLSI), gentamicin-resistant E. coli; type: cell-based; details: footnote ATCC 6174 (gentamicin resistant)
# Method: as §1
# [12] = system: E. coli (Amikacin MIC 32) CAN-ICU 63074; assay: MIC, broth macrodilution (CLSI), E. coli CAN-ICU 63074; type: cell-based
# Method: as §1
# [13] = system: Stenotrophomonas maltophilia (CAN-ICU 62585); assay: MIC, broth macrodilution (CLSI), S. maltophilia; type: cell-based; details: S. maltophilia, footnote CAN-ICU 62584
# Method: as §1
SMILES,Minimal Inhibitory Concentration (MIC) [1] [mg/L],Minimal Inhibitory Concentration (MIC) [2] [mg/L],Minimal Inhibitory Concentration (MIC) [3] [mg/L],Minimal Inhibitory Concentration (MIC) [4] [mg/L],Minimal Inhibitory Concentration (MIC) [5] [mg/L],Minimal Inhibitory Concentration (MIC) [6] [mg/L],Minimal Inhibitory Concentration (MIC) [7] [mg/L],Minimal Inhibitory Concentration (MIC) [8] [mg/L],Minimal Inhibitory Concentration (MIC) [9] [mg/L],Minimal Inhibitory Concentration (MIC) [10] [mg/L],Minimal Inhibitory Concentration (MIC) [11] [mg/L],Minimal Inhibitory Concentration (MIC) [12] [mg/L],Minimal Inhibitory Concentration (MIC) [13] [mg/L]
CN(C)c1ccc(NC(=O)OCC2OC(OC3C(OC(=O)Nc4ccc(N(C)C)cc4)C(N)CC(N)C3OC3OC(CN)C(OC(=O)Nc4ccc(N(C)C)cc4)C(OC(=O)Nc4ccc(N(C)C)cc4)C3N)C(OC(=O)Nc3ccc(N(C)C)cc3)C2OC2OC(CN)C(OC(=O)Nc3ccc(N(C)C)cc3)C(OC(=O)Nc3ccc(N(C)C)cc3)C2N)cc1.O=C(O)C(F)(F)F.O=C(O)C(F)(F)F.O=C(O)C(F)(F)F.O=C(O)C(F)(F)F.O=C(O)C(F)(F)F.O=C(O)C(F)(F)F.O=C(O)C(F)(F)F.O=C(O)C(F)(F)F.O=C(O)C(F)(F)F.O=C(O)C(F)(F)F.O=C(O)C(F)(F)F.O=C(O)C(F)(F)F.O=C(O)C(F)(F)F (centres unmarked) [Compound 4],8,>256,32,16,8,16,>256,128,128,128,128,64,256
NCC1OC(OC2C(N)CC(N)C(OC3OC(COC(=O)Nc4ccccc4)C(OC(=O)Nc4ccccc4)C(N)C3OC(=O)Nc3ccccc3)C2OC(=O)Nc2ccccc2)C(OC(=O)Nc2ccccc2)C(OC(=O)Nc2ccccc2)C1OC(=O)Nc1ccccc1.O=C(O)C(F)(F)F.O=C(O)C(F)(F)F.O=C(O)C(F)(F)F.O=C(O)C(F)(F)F (centres unmarked) [Compound 5],8,>256,64,32,4,32,>256,>256,>256,>256,>256,>256,>256
CCCCCCNC(=O)OCC1OC(OC2C(N)CC(N)C(OC3OC(CN)C(OC(=O)NCCCCCC)C(OC(=O)NCCCCCC)C3OC(=O)NCCCCCC)C2OC(=O)NCCCCCC)C(OC(=O)NCCCCCC)C(N)C1OC(=O)NCCCCCC.O=C(O)C(F)(F)F.O=C(O)C(F)(F)F.O=C(O)C(F)(F)F.O=C(O)C(F)(F)F (centres unmarked) [Compound 6],32,>256,128,64,16,32,>256,128,128,32,64,64,>256
CN(C)c1ccc(NC(=O)OCC2OC(OC3C(N)CC(N)C(OC4OC(CN)C(OC(=O)Nc5ccc(N(C)C)cc5)C(OC(=O)Nc5ccc(N(C)C)cc5)C4OC(=O)Nc4ccc(N(C)C)cc4)C3OC(=O)Nc3ccc(N(C)C)cc3)C(OC(=O)Nc3ccc(N(C)C)cc3)C(N)C2OC(=O)Nc2ccc(N(C)C)cc2)cc1.O=C(O)C(F)(F)F.O=C(O)C(F)(F)F.O=C(O)C(F)(F)F.O=C(O)C(F)(F)F.O=C(O)C(F)(F)F.O=C(O)C(F)(F)F.O=C(O)C(F)(F)F.O=C(O)C(F)(F)F.O=C(O)C(F)(F)F.O=C(O)C(F)(F)F.O=C(O)C(F)(F)F (centres unmarked) [Compound 7],32,>256,>256,32,16,16,>256,>256,256,256,256,256,>256
NCCC(OC(=O)Nc1ccccc1)C(=O)NC1CC(N)C(OC2OC(CN)C(OC(=O)Nc3ccccc3)C(OC(=O)Nc3ccccc3)C2OC(=O)Nc2ccccc2)C(OC(=O)Nc2ccccc2)C1OC1OC(COC(=O)Nc2ccccc2)C(OC(=O)Nc2ccccc2)C(N)C1OC(=O)Nc1ccccc1.O=C(O)C(F)(F)F.O=C(O)C(F)(F)F.O=C(O)C(F)(F)F.O=C(O)C(F)(F)F (centres unmarked) [Compound 8],2,256,32,16,2,8,256,>256,256,256,256,256,128
NCC1OC(OC2C(N)CC(N)C(OC(=O)Nc3ccccc3)C2OC(=O)Nc2ccccc2)C(N)C(OC(=O)Nc2ccccc2)C1OC(=O)Nc1ccccc1.O=C(O)C(F)(F)F.O=C(O)C(F)(F)F.O=C(O)C(F)(F)F.O=C(O)C(F)(F)F (centres unmarked) [Compound 10],8,256,>256,16,8,16,64,128,32,128,32,32,64
NCC1OC(OC2C(N)CC(N)C(OCc3ccc(Cl)cc3)C2OC2OC(COCc3ccc(Cl)cc3)C(OC3OC(CN)C(OCc4ccc(Cl)cc4)C(OCc4ccc(Cl)cc4)C3N)C2OCc2ccc(Cl)cc2)C(N)C(OCc2ccc(Cl)cc2)C1OCc1ccc(Cl)cc1.O=C(O)C(F)(F)F.O=C(O)C(F)(F)F.O=C(O)C(F)(F)F.O=C(O)C(F)(F)F.O=C(O)C(F)(F)F.O=C(O)C(F)(F)F (centres unmarked) [Compound 12],64,>128,128,64,32,64,128,>128,128,>128,>128,64,>128
CC(C)(C)c1ccc(COCC2OC(OC3C(OCc4ccc(C(C)(C)C)cc4)C(N)CC(N)C3OC3OC(CN)C(OCc4ccc(C(C)(C)C)cc4)C(OCc4ccc(C(C)(C)C)cc4)C3N)C(OCc3ccc(C(C)(C)C)cc3)C2OC2OC(CN)C(OCc3ccc(C(C)(C)C)cc3)C(OCc3ccc(C(C)(C)C)cc3)C2N)cc1.O=C(O)C(F)(F)F.O=C(O)C(F)(F)F.O=C(O)C(F)(F)F.O=C(O)C(F)(F)F.O=C(O)C(F)(F)F.O=C(O)C(F)(F)F (centres unmarked) [Compound 13],64,>128,256,128,64,128,>128,256,128,128,128,128,>128
